Assay results from ChEMBL document CHEMBL2074435, “Quantitative analysis of breast cancer resistance protein and cellular resistance to flavopiridol in acute leukemia patients” (Clin Cancer Res, 2003).

Target: T1, Broad substrate specificity ATP-binding cassette transporter ABCG2 (Homo sapiens, UniProt Q9UNQ0)
T1 sequence (Q9UNQ0 whole entry): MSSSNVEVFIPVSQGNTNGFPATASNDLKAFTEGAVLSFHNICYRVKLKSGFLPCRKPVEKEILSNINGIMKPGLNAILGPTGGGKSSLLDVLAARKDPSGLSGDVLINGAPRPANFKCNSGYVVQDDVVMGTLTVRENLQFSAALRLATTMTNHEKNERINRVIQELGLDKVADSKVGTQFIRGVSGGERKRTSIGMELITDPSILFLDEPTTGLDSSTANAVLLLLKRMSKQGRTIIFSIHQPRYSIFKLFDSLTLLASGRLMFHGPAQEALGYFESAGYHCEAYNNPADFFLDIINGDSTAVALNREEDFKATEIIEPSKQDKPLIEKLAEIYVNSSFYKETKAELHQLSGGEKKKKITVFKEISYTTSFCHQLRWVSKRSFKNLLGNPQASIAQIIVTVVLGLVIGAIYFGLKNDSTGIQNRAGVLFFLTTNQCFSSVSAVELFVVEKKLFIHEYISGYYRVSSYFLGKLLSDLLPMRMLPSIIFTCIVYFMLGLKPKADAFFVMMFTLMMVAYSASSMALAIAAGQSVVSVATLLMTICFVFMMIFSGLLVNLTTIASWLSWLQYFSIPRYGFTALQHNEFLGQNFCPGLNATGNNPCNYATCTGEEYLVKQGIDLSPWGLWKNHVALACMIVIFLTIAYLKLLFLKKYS
Test: TP_TRANSPORTER: correlation hBCRPmRNA with flavopiridol induced apoptosis resistance
Format: functional, cell-based

Structure (SMILES): CN1CC[C@H](c2c(O)cc(O)c3c(=O)cc(-c4ccccc4Cl)oc23)[C@H](O)C1 [ALVOCIDIB]
- Activity: substrate []
